Publication PMC10272112 (Nature Communications, 2023)
Where “and” joins values, the source holds several entries; their conditions need not be identical. Equal values may be shown once. Read-outs that look alike come from different tables or passages of the source.

Tests used:
HDAC10 = target: T1, HDAC10 (Homo sapiens, UniProt Q969S8); experiment: Chemoproteomic competition pulldown assay; type: binding
T1 construct: host or cells: HeLa mono-clones, stably expressing
T1 sequence (Q969S8 1-669): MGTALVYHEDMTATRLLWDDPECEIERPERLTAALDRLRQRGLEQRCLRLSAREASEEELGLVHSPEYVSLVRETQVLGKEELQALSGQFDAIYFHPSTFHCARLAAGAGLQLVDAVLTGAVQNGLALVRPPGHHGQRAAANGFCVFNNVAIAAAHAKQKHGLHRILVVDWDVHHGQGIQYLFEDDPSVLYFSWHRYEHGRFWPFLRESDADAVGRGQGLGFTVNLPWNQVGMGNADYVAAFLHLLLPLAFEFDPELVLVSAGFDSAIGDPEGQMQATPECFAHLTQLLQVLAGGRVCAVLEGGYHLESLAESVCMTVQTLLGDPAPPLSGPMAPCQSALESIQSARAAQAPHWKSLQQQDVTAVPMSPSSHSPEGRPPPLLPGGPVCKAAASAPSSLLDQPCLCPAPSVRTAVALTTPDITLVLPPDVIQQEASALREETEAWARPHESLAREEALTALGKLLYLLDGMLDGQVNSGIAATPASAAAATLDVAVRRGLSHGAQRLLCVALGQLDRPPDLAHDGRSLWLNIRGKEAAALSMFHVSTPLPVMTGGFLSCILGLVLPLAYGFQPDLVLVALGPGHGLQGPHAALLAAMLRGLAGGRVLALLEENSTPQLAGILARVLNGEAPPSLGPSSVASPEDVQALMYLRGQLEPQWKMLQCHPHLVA
Experimental: To identify proteins directly bound by lipoic acid, we employed a chemoproteomic competition assay. Briefly, (R/S)-LA was immobilized on sepharose beads via an amidation reaction to form an affinity matrix (abbreviated as iL; Fig. 1a). This affinity matrix can be incubated with cell lysate to pull down potential LA or LM target proteins and identify these targets via bottom-up proteomics. In a competition assay, free LA or LM were incubated with lysate at different concentrations before pulling down and quantifying target proteins. […] (Fig. 1b, see “Methods” for details). […] The lysate buffer used in this assay contains 1 mM DTT to mimic the intracellular reductive milieu and to reduce lipoic acid and LM. […] Additional competition assays performed in lung adenocarcinoma cell A549 lysate also identified HDAC1, HDAC2, and HDAC6 as targets (Supplementary Fig. 1b). Amongst the three cell lines tested, HDACs were the only confidently identified targets across the 1500–3000 proteins quantified in these assays. […] We validated the results by analogous pulldown competition assays using two other affinity matrices prepared via the immobilization of either the HDAC inhibitor Quisinostat (iQ) and an analog of the class IIa HDAC inhibitor Bürli’s 31[14] (iC)[12]. We have previously shown that these affinity matrices specifically bind to the active sites of HDACs and have used them for HDACi selectivity profiling. Indeed, binding of (R/S)-LA and (R/S)-LM to HDAC1, HDAC2, HDAC3, HDAC6, and, to a lesser extent, HDAC8 was confirmed in these assays (Supplementary Fig. 1c, d). No binding to class IIa HDACs or the recently discovered common HDAC inhibitor off-target MBLAC2 was observed (Supplementary Fig. 1e)[12]. […] This observation might reflect electrostatic repulsion between the HDAC10 active site gate-keeper glutamic acid residues[15],[16] and the terminal carboxylic acid of LA.
To assess the degree of protein depletion from lysates by the affinity matrix, a second pulldown (PDPD) with fresh beads was performed using the unbound protein fraction from the vehicle control flow through. The beads were washed (1 × 1 mL of lysis buffer without inhibitors and only 0.4% Igepal, 2 × 2 mL of lysis buffer without inhibitors and only 0.2% Igepal), and captured proteins were denatured with 8 M urea buffer, alkylated with 55 mM chloroacetamide and digested with Trypsin according to standard procedures. The resulting peptides were desalted on a C18 filter plate (Sep-Pak® tC18 µElution Plate, Waters), vacuum dried, and stored at −20 °C until LC–MSMS measurement.
For the competition assays, relative binding was calculated based on the protein intensity ratio to the DMSO control for every single inhibitor concentration. EC50 values were derived from a four-parameter log-logistic regression with variable slope (constrain: bottom > 0). The obtained EC50 values were multiplied with a protein-dependent correction factor (cf), resulting in the apparent Kd value (Kd^app). The correction factor is determined by calculating the ratio of the protein intensity of two consecutive pulldowns of the vehicle control sample[13]. Targets of the inhibitors were annotated manually according to published procedures[12],[46],[47]. […] Additionally, the number of unique peptides and MSMS counts per condition were taken into account. Positive target binding across several independent experiments performed with different cell lysates further substantiated our confidence for a true positive drug-target binding event.

HDAC2 = HDAC2 (Homo sapiens, UniProt Q92769); experiment: HDAC-Glo assay; type: biochemical; parameters: purchased BPS Bioscience 50002; conditions: for EC50: read-out: log EC50 from dose-dependent HDAC inhibition curves (converted); for HDAC2 relative activity: sheet S2b
Experimental: To validate the inhibition of HDACs by LA and LM and elaborate on the structure-activity relationship (SAR) of enantiomers as well as oxidized versus reduced forms of the molecules, we performed enzyme activity assays for recombinant HDAC1,2,3,6,8 as well as FRET-based binding assay for recombinant HDAC10.
The experiments were performed according to ref. [48]. […] Drug dosing was performed with a D300e Digital Dispenser (Tecan). HDACs (7 ng/mL for HDAC1, 25 ng/mL for HDAC2, 200 ng/mL for HDAC3/Ncor2 complex, 100 ng/mL for HDAC6, 200 ng/mL for HDAC8) and inhibitors were incubated together at room temperature (RT) for 30 min. After the addition of the HDAC-Glo™ I/II reagent, plates were shaken (800 rpm orbital shaker, 30 s), centrifuged (300 g, 1 min), and incubated at RT for 30 min. Luminescence was detected with a CLARIOstar (BMG Labtech) plate reader.

[1] = iQ, SW620, read-out: pKdapp (converted)
[2] = iQ, SW620 lysate, log10 M -3.52288
[3] = iQ, SW620 lysate, log10 M -4.52288
[4] = iQ, SW620 lysate, log10 M -5.52288
[5] = iQ, SW620 lysate, log10 M -6.52288

HDAC2, sequence (Q92769 whole entry): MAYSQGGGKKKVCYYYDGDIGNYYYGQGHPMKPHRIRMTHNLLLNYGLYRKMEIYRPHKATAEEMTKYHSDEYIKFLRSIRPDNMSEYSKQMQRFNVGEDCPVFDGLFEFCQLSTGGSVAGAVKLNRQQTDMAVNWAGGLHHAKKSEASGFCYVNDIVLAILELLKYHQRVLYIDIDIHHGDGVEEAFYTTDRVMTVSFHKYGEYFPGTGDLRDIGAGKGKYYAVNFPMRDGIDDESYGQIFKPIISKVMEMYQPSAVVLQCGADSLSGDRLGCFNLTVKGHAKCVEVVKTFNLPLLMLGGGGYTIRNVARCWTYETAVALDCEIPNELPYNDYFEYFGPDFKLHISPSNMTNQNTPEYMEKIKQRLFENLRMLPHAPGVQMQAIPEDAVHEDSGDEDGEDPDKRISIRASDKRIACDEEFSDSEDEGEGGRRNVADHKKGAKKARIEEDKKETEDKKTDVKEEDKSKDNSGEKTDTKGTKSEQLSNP

Compound | HDAC10 binding in competition assays (HDAC10) | Kd (HDAC10; [1]) [µM] | relative binding vs DMSO (HDAC10; [2]) | relative binding vs DMSO (HDAC10; iQ, SW620 lysate, log10 M -4) | relative binding vs DMSO (HDAC10; [3]) | relative binding vs DMSO (HDAC10; iQ, SW620 lysate, log10 M -5) | relative binding vs DMSO (HDAC10; [4]) | relative binding vs DMSO (HDAC10; iQ, SW620 lysate, log10 M -6) | relative binding vs DMSO (HDAC10; [5]) | relative binding vs DMSO (HDAC10; iQ, SW620 lysate, log10 M -7) | EC50 (HDAC2) [µM] | HDAC2 relative activity (HDAC2; log conc -3.30103) | HDAC2 relative activity (HDAC2; log conc -3.82945) | HDAC2 relative activity (HDAC2; log conc -4.35788) | HDAC2 relative activity (HDAC2; log conc -4.88629) | HDAC2 relative activity (HDAC2; log conc -5.41477) | HDAC2 relative activity (HDAC2; log conc -5.94309) | HDAC2 relative activity (HDAC2; log conc -6.47756) | HDAC2 relative activity (HDAC2; log conc -6.87615) | further results
O=C(O)CCCCC1CCSS1 (racemic) [(R/S)-LA, (R/S)-lipoic acid] | does not bind HDAC10 | > 316 | 0.8351 | 1.0789 | 0.7975 | 1.279 | 1.261 | 1.294 | 1.332 | 1.395 | 27.9 | 1.632 and 1.608 and 1.6104 | 4.377 and 4.239 and 4.397 | 14.1348 and 14.1034 and 14.0027 | 32.6794 and 32.1097 and 32.0348 | 62.7872 and 63.5079 and 63.5078 | 83.5078 and 83.413 and 83.6174 | 91.2192 and 90.5813 and 91.6447 | 99.2152 and 97.4208 and 97.0893 | HDAC enzymatic activity (normalized luminescence) (HDAC2; 0.5 M TCEP, log10 M -3.30103, 3 technical replicates): 4.517 and 4.579 and 4.669; HDAC enzymatic activity (normalized luminescence) (HDAC2; 0.5 M TCEP, log10 M -3.82945, 3 technical replicates): 14.6838 and 15.1597 and 14.9231; HDAC enzymatic activity (normalized luminescence) (HDAC2; 0.5 M TCEP, log10 M -4.35788, 3 technical replicates): 37.5127 and 37.9281 and 38.3803; HDAC enzymatic activity (normalized luminescence) (HDAC2; 0.5 M TCEP, log10 M -4.88629, 3 technical replicates): 65.6665 and 63.7639 and 65.7588; HDAC enzymatic activity (normalized luminescence) (HDAC2; 0.5 M TCEP, log10 M -5.41477, 3 technical replicates): 83.5292 and 85.2785 and 86.439; HDAC enzymatic activity (normalized luminescence) (HDAC2; 0.5 M TCEP, log10 M -5.94309, 3 technical replicates): 90.5846 and 91.5425 and 93.8157; HDAC enzymatic activity (normalized luminescence) (HDAC2; 0.5 M TCEP, log10 M -6.47756, 3 technical replicates): 95.0155 and 95.0012 and 98.6939; HDAC enzymatic activity (normalized luminescence) (HDAC2; 0.5 M TCEP, log10 M -6.87615, 3 technical replicates): 97.7664 and 98.3233 and 101.153; HDAC enzymatic activity (normalized luminescence) (HDAC2; no TCEP, log10 M -3.30103, 3 technical replicates): 44.2753 and 42.6833 and 42.8281; HDAC enzymatic activity (normalized luminescence) (HDAC2; no TCEP, log10 M -3.82945, 3 technical replicates): 74.0269 and 74.0487 and 74.0611; HDAC enzymatic activity (normalized luminescence) (HDAC2; no TCEP, log10 M -4.35788, 3 technical replicates): 91.4647 and 91.3223 and 92.1121; HDAC enzymatic activity (normalized luminescence) (HDAC2; no TCEP, log10 M -4.88629, 3 technical replicates): 96.4611 and 96.3058 and 97.9917; HDAC enzymatic activity (normalized luminescence) (HDAC2; no TCEP, log10 M -5.41477, 3 technical replicates): 98.5234 and 99.2037 and 100.016; HDAC enzymatic activity (normalized luminescence) (HDAC2; no TCEP, log10 M -5.94309, 3 technical replicates): 96.9658 and 96.4307 and 98.1115; HDAC enzymatic activity (normalized luminescence) (HDAC2; no TCEP, log10 M -6.47756, 3 technical replicates): 98.5723 and 98.9021 and 101.472; HDAC enzymatic activity (normalized luminescence) (HDAC2; no TCEP, log10 M -6.87615, 3 technical replicates): 102.033 and 100.085 and 101.747
NC(=O)CCCCC1CCSS1 (racemic) [(R/S)-LM, (R/S)-lipoamide] | binds HDAC10 with an even higher affinity than other HDACs | 3.16 | 0.03275 | 0.4253 | 0.3482 | 0.4143 | 0.681 | 0.6621 | 0.6582 | 0.9909 | 6.64 | 71.964 and 72.3177 and 72.1483 | 80.6393 and 80.2369 and 79.5941 | 93.3465 and 95.4258 and 92.7624 | 96.436 and 96.5227 and 94.9323 | 101.607 and 103.068 and 101.387 | 100.457 and 99.1256 and 100.639 | 98.6184 and 99.6756 and 101.604 | 101.142 and 100.648 and 102.314 | relative binding vs DMSO (HDAC10; iL, MV4-11 lysate, log10 M -3.52288): 0.04424; relative binding vs DMSO (HDAC10; iL, MV4-11 lysate, log10 M -4): 0.1432; relative binding vs DMSO (HDAC10; iL, MV4-11 lysate, log10 M -4.52288): 0.2397; relative binding vs DMSO (HDAC10; iL, MV4-11 lysate, log10 M -5): 0.4705; relative binding vs DMSO (HDAC10; iL, MV4-11 lysate, log10 M -5.52288): 0.6761; relative binding vs DMSO (HDAC10; iL, MV4-11 lysate, log10 M -6): 0.5589; relative binding vs DMSO (HDAC10; iL, MV4-11 lysate, log10 M -6.52288): 0.7984; relative binding vs DMSO (HDAC10; iL, MV4-11 lysate, log10 M -7): 0.7331; Kd (HDAC10; iL, MV4-11 lysate, read-out: Kd app): 5 µM; Kd (HDAC10; iL, MV411, read-out: pKdapp (converted)): 3.16 µM
